Measurements reported in patent publication US20240408211A1, “COMPOSITIONS AND METHODS OF AMELIORATING AVERSIVENESS OF AVERSIVE STIMULI BY INHIBITION OF PURINERGIC RECEPTORS” (Monell Chemical Senses Center, priority 2021, published 2024).
pIC50: −log10 of the molar value. Like-named read-outs stand apart in the source and are kept apart here.

Legend:
[1] = tested on: patients; details: cited from earlier work
[2] = tested on: humans
Procedure: In some experiments, we used a regimen of two 1-minute rinses with 500 μM AF-353 composition (i.e., oral topical administration).
In this study, we tested an AF-353 composition in humans as an oral rinse after receiving IRB approval for its use. First, we tested rinsing 100 μM (0.04 mg/mL) orally for 2 minutes as 4×30 sec rinses with expectoration. We tested before and after sour, bitter, sweet, and salty solutions (quinine HCl, NaCl, Praziquantal, sucrose, CO2).
Next, we tested rinsing 500 μM (0.2 mg/mL) AF-353 for two minutes, in 2×1 min increment rinses with expectoration.

[3] = tested on: rats; details: cited from earlier work
[4] = clinical trial; cited from earlier work
[5] = in vivo; cited from earlier work
[6] = molecular target: T1, P2X2/3 (Homo sapiens, UniProt P56373+Q9UBL9); assay: P2X2/3 stable HEK293 cell lines responding to α,β-meATP (screening assay); type: cell-based
T1 construct: expressed in transfected cells; host or cells: HEK293
T1 sequence (Q9UBL9 1-471): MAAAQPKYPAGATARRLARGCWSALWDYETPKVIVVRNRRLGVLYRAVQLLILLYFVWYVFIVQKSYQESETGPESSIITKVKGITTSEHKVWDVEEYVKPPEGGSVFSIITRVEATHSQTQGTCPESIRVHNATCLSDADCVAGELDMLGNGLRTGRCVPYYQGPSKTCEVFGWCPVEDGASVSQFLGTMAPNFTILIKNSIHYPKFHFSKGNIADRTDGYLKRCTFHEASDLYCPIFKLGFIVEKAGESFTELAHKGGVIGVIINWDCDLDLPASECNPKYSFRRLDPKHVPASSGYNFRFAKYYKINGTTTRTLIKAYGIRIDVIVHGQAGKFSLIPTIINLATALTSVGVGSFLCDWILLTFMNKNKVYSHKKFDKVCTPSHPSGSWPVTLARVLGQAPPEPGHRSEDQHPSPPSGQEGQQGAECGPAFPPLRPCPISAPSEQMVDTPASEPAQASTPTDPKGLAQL
T1 sequence (P56373 1-397): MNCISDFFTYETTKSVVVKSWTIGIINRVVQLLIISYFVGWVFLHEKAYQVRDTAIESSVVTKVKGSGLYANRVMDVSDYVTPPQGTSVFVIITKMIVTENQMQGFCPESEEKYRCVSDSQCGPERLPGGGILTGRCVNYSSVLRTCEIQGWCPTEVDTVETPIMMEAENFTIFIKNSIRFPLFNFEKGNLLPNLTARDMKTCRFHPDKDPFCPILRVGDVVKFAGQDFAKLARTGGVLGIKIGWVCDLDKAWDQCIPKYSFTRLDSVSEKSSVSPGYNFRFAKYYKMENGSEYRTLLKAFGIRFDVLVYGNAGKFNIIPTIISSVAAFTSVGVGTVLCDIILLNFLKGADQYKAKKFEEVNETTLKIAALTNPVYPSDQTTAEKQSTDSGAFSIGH
Procedure: In this study, we built stable cell lines expressing P2X2/3 in HEK293 cells via transfection with either P2X2-Neo or P2X3-Zeo constructs, following which selection was performed using Zeocin, G418. Picked clones were grown out from single cells (cultured continuously in the presence of Zeocin and G418) using cloning rings.
The resulted stable cell lines are used for characterizing putative taste-blockers.

Structure (SMILES): COc1cc(C(C)C)c(Oc2cnc(N)nc2N)cc1S(N)(=O)=O [AF-219, 5-[(2,4-diaminopyrimidin-5-yl)oxy]-2-methoxy-4-(propan-2-yl)benzene-1-sulfonamide]
- taste disturbances ([1]; 600 mg twice daily): taste disturbances in all patients tested
- taste disturbances ([1]; doses as low as 7.5-50 mg twice daily): also cause taste disturbances, albeit less severe
- taste block ([2]; 500 μM, preliminary test): did not block taste

Structure (SMILES): O=C(NCC12CC3CC(CC(C3)C1)C2)c1cc(CCCNCCCO)ccc1Cl [AZD-9056]
- taste block ([2]; various concentration, negative control composition): did not block taste

Structure (SMILES): CNC(=O)c1cc(F)c(-c2nc3cc(C)ccn3c2C[C@@H]2CCCN(C(=O)OC)C2)c(F)c1 [BLU-5937, Methyl (S)-3-((2-(2,6-difluoro-4-(methylcarbamoyl)phenyl)-7-methylimidazo[1,2-a]pyridin-3-yl)methyl)piperidine-1-carboxylate]
- influence on taste ([3]; rat, 10-20 mg/kg intraperitoneally): did not influence taste
- behaviour towards 0.3 mM quinine hydrochloride in two-bottle choice ([3]; rats, 10 or 20 mg/kg ip, 15-min test): avoided the quinine

Structure (SMILES): Cc1cnc(-c2cc(O[C@@H]3CCOC3)cc(C(=O)N[C@H](C)c3cnc(C(F)(F)F)nc3)c2)s1 [eliapixant]
- taste-related adverse events (primarily dysgeusia) [4]: caused taste-related adverse events
- effects on ratings of taste intensity measured using taste strips [5]: no concerted effects

Structure (SMILES): Nc1ncnc2c1ncn2[C@@H]1O[C@H](COP(=O)(O)CP(=O)(O)OP(=O)(O)O)[C@@H](O)[C@H]1O [α,β-meATP]
- pIC50 ([6]; P2X2/3 stable Line 2): 5.70
- pIC50 ([6]; P2X2/3 stable Line 6): 5.68
- pIC50 ([6]; P2X2/3 stable Line 9): 5.41
- pIC50 ([6]; P2X2/3 stable Line 12): 5.75
- pIC50 ([6]; P2X2/3 stable Line 24): 5.56
